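Protocol summary: plate cells (96-well), add compound at 5 concentrations, incubate 48 h, interpolate endpoints linearly. The concentration for 50% growth inhibition is given as GI50.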 Active and inactive are the calls of the source. No stated cut-off is given here; in the data, active = GI50 up to about 1.1 µM and inactive = higher.
Legend:
Test in all cases: growth of human tumour cells (NCI), 48 h
RPMI-8226 = test system: RPMI-8226
DU-145 = test system: DU-145
ACHN = test system: ACHN
MCF7 = test system: MCF7
SK-OV-3 = test system: SK-OV-3
SNB-19 = test system: SNB-19
K562 = test system: K562
SN12C = test system: SN12C
SK-MEL-28 = test system: SK-MEL-28
HOP-92 = test system: HOP-92
OVCAR-4 = test system: OVCAR-4
786-0 = test system: 786-0
T47D = test system: T47D
NCI-H23 = test system: NCI-H23
HCT-15 = test system: HCT-15
BT-549 = test system: BT-549
SF-295 = test system: SF-295
Malme-3M = test system: Malme-3M
SF-539 = test system: SF-539

Row | Structure (SMILES) | GI50 (RPMI-8226) | GI50 (DU-145) | GI50 (ACHN) | GI50 (MCF7) | GI50 (SK-OV-3) | GI50 (SNB-19) | GI50 (K562) | GI50 (SN12C) | GI50 (SK-MEL-28) | GI50 (HOP-92) | GI50 (OVCAR-4) | GI50 (786-0) | GI50 (T47D) | GI50 (NCI-H23) | GI50 (HCT-15) [µM] | GI50 (BT-549) | GI50 (SF-295) | GI50 (Malme-3M) | GI50 (SF-539)
1 | COc1cccc2c1OC1(C=C2)Oc2ccccc2C(=O)N1C (stereo not drawn) | 27.9 µM (inactive) | 34 µM (inactive) | 35.2 µM (inactive) | 37.8 µM (inactive) | 25.9 µM (inactive) | 56.2 µM (inactive) | 17.5 µM (inactive) | 22.5 µM (inactive) | 59 µM (inactive) | 35.2 µM (inactive) | 45.3 µM (inactive) | 35.5 µM (inactive) | 31.9 µM (inactive) | 31.2 µM (inactive) | 32.5 | 31.2 µM (inactive) | 22.8 µM (inactive) | – | –
2 | CCCSc1ccc2[nH]c(N3C(=O)/C(=C/c4ccc(O)c(OC)c4)N=C3c3ccccc3)cc2c1 | 3.53 µM (inactive) | 25.8 µM (inactive) | 25.2 µM (inactive) | 2.94 µM (inactive) | 0.1 µM (active) | 3.57 µM (inactive) | 3.68 µM (inactive) | 4.18 µM (inactive) | 17.2 µM (inactive) | 22 µM (inactive) | – | 16.3 µM (inactive) | 22.3 µM (inactive) | 16.7 µM (inactive) | 4.43 | 9.57 µM (inactive) | – | 2.98 µM (inactive) | 4.88 µM (inactive)
3 | CC1=C[C@H](C[C@]2(C)c3c(c4c(C)cccc4oc3=O)O[C@@H]2C)OC1=O | 0.0778 µM (active) | > 100 µM (inactive) | > 100 µM (inactive) | 52.6 µM (inactive) | > 100 µM (inactive) | > 100 µM (inactive) | 28 µM (inactive) | 54.8 µM (inactive) | > 10 µM (inactive) | – | – | 22.8 µM (inactive) | 50.8 µM (inactive) | 65.5 µM (inactive) | 18.3 | 23.4 µM (inactive) | > 100 µM (inactive) | 29.9 µM (inactive) | > 100 µM (inactive)
4 | NC(=O)C(=CN1CC(=O)NC1=S)C(N)=O | – | > 100 µM (inactive) | > 100 µM (inactive) | > 100 µM (inactive) | > 100 µM (inactive) | > 100 µM (inactive) | – | > 100 µM (inactive) | > 100 µM (inactive) | > 100 µM (inactive) | > 100 µM (inactive) | > 100 µM (inactive) | > 100 µM (inactive) | > 100 µM (inactive) | > 100 | > 100 µM (inactive) | > 100 µM (inactive) | – | > 100 µM (inactive)
5 | CCc1ccc(Nc2cc(=O)[nH]c(SCc3ccccc3)n2)cc1 | > 100 µM (inactive) | > 100 µM (inactive) | 50.7 µM (inactive) | > 100 µM (inactive) | > 100 µM (inactive) | 38.2 µM (inactive) | > 100 µM (inactive) | > 100 µM (inactive) | – | 31.2 µM (inactive) | – | 43.6 µM (inactive) | > 100 µM (inactive) | 61.5 µM (inactive) | > 100 | > 100 µM (inactive) | 46.2 µM (inactive) | > 100 µM (inactive) | 52 µM (inactive)
6 | CSc1c(C(=O)Nc2ccc(Cl)cc2)c(N)nn1-c1ccccc1 | > 100 µM (inactive) | > 100 µM (inactive) | 78.7 µM (inactive) | > 100 µM (inactive) | 19.6 µM (inactive) | > 100 µM (inactive) | > 100 µM (inactive) | > 100 µM (inactive) | > 100 µM (inactive) | > 100 µM (inactive) | – | 9.75 µM (inactive) | > 100 µM (inactive) | > 100 µM (inactive) | > 100 | > 100 µM (inactive) | > 100 µM (inactive) | > 100 µM (inactive) | > 100 µM (inactive)
7 | O=c1[nH]/c(=C/c2ccc(OCc3ccccc3)cn2)c(=O)[nH]/c1=C/c1ccccc1 | 0.123 µM (active) | 0.128 µM (active) | 0.296 µM (active) | 0.425 µM (active) | 0.531 µM (active) | 0.157 µM (active) | 0.141 µM (active) | 0.113 µM (active) | > 100 µM (inactive) | 14.3 µM (inactive) | 0.465 µM (active) | 0.128 µM (active) | > 24.7 µM (inactive) | 0.107 µM (active) | 0.135 | 0.787 µM (active) | 0.107 µM (active) | – | 0.12 µM (active)
8 | O=C(N/N=C\c1c(O)ccc2ccccc12)c1ccncc1 | 0.364 µM (active) | 2.88 µM (inactive) | 0.206 µM (active) | 3.09 µM (inactive) | 0.693 µM (active) | 1.21 µM (inactive) | 0.0553 µM (active) | 0.231 µM (active) | 0.649 µM (active) | 1.31 µM (inactive) | 0.237 µM (active) | 0.2 µM (active) | 2.49 µM (inactive) | 1.53 µM (inactive) | 0.0991 | 0.927 µM (active) | > 5.98 µM (inactive) | – | 0.675 µM (active)
